Experimental findings from ChEMBL document CHEMBL5579840, “Optimization of diastereomeric dihydropyridines as antimalarials” (Eur J Med Chem, 2024) are described below.

Activity calls are given as the source filed them. The rule behind the calls is not given here. Bounds are passed on as bounds.

Test [1] deals with Plasmodium falciparum. The test can be described thus: Fold resistance, ratio of EC50 for antiplasmodial activity against Plasmodium falciparum W2 infected in RBC assessed as inhibition of parasite growth incubated for 22 days to EC50 for antiplasmodial activity against Plasmodium falciparum W2 infected in RBC assessed as inhibition of parasite growth incubated for 72 hrs. It is filed as functional.

The subject of test [2] is Plasmodium falciparum. The test can be described thus: Antimalarial activity against Plasmodium falciparum W2 infected in RBC assessed as parasitemia at 700 nM measured on day 4 by microscopic analysis relative to control. It is filed as functional. Particulars: time 4 day.
Test [3] deals with Plasmodium falciparum. Description: Antimalarial activity against Plasmodium falciparum W2 infected in RBC assessed as reduction in parasitemia at 700 nM measured immediately by YOYO1 staining based LSR II flow cytometer. The class given is functional, organism-based. A general note: Flow cytometry measures light scatter and fluorescence of single cells or particles in a stream.

Test [4] concerns Plasmodium falciparum. Description: Antimalarial activity against Plasmodium falciparum W2 infected in RBC assessed as inhibition of growth incubated for 22 days by YOYO1 staining based LSR II flow cytometer. It is filed as functional, organism-based. Particulars: W2, Erythrocyte, 528 h.
Test [5] relates to Plasmodium falciparum. The test can be described thus: Antimalarial activity against Plasmodium falciparum W2 infected in RBC assessed as inhibition of parasite growth incubated for 72 hrs by YOYO1 staining based LSR II flow cytometer. It is filed as functional, organism-based. To be noted: W2, Erythrocyte.
For test [6], the system named is Plasmodium falciparum. The test can be described thus: Antiplasmodial activity against chloroquine-sensitive Plasmodium falciparum 3D7. The class given is functional, organism-based.

Take `CCCOC(=O)C1=C(C)NC2=C(C(=O)CC(c3ccc(OC)c(OC)c3)C2)C1c1ccccc1F` (stereo unspecified): in the test on Plasmodium falciparum [1], the “Ratio EC50” value was found to be 311. Moreover, the Activity in the test on Plasmodium falciparum [2] is given as 0%. Also, the outcome in the test with Plasmodium falciparum [3] was Active. Besides, the EC50 with Plasmodium falciparum [4] is 2610 nM; with Plasmodium falciparum [5] it was 8.4 nM; with Plasmodium falciparum [6] it was less than 50 nM.

In general, EC50 refers to the midpoint of the concentration-response curve.
